From patent US20090057619A1, “Compositions and Visual Perception Changing Methods” (priority 2007, published 2009)
Values belong to the compound of their own block, whether it stands above or below them.

How the values were obtained:
[1] = cited from earlier work; for reported pKa: @ 25° C.
[2] = Ratio of absorbances Abs1:Abs2 as a function of product dilution, pH kept at 9.0; type: physicochemical; details: pH 9.0; for Abs1:Abs2: no detergent
Protocol: Example of color change—pH is kept constant upon dilution—As shown in Tables 1 and 2 below, bromothymol blue (BTB) is assessed in representative nil-dye versions of representative hand dishwashing products: a) Dawn® Bleach Alternative, b) Dreft®, and c) nil-dye Fairy® Liquid. In a typical procedure, BTB is directly added to the hand dishwashing detergent (60 ppm BTB) and the visible spectrum monitored (λ=400-700 nm) as a function of product dilution with deionized water. After each dilution, the detergent solution is adjusted to pH 9.0 with 0.1% NaOH and the ratio of absorbances at λmax=615-635 nm (Abs1) and λmax=395-435 nm (Abs2) measured. For comparison, a 60 ppm aqueous solution of BTB is prepared and sequentially diluted with deionized water, the pH again adjusted to 9.0 after each dilution (Table 2).
For the dishwashing detergents containing BTB, the ratio Abs1:Abs2 increases upon dilution, the most significant increase occurring at product concentrations ≦2.5%. […] Absorption measurements for Tables 1 and 2 are made on an HP UV/Visibile 8453 Spectrophotometer (Hewlett-Packard).

[3] = pKa of BTB estimated by spectrophotometric titration in water and in model dishwashing detergent; type: physicochemical
Description: Example of color change—pKa measurements—As outlined in the methods described by Brode (Journal of the American Chemical Society, Vol. 46, pp 581-596, 1924) and Puschett et al (Talanta, Vol. 38, Issue #3, pp 335-338, 1991), the pKa of bromothymol blue (BTB) is estimated in water and a model dishwashing detergent containing approximately 30% surfactant (combination of alkylethoxysulfonate and amine oxide). In the absence of detergent, stock solutions of BTB (6-20 ppm) are first adjusted to a pH of 11-12 and titrated with 1% HCl down to a pH of 4.0. After each pH adjustment the absorbance peak at 617 nm (Abs1) is measured and pKa estimated from the abscissa of the point of inflection. In similar fashion, BTB is added at a 60 ppm level to the dishwashing detergent, diluted 10-100 fold with deionized water and titrated with 1% HCl.

Abs1:Abs2 ([2]; BTB in water 0.3 ppm (product conc. 0.5 %)): 5.00
Abs1:Abs2 ([2]; BTB in water 0.6 ppm (product conc. 1 %)): 4.68
Abs1:Abs2 ([2]; BTB in water 1.2 ppm (product conc. 2 %)): 4.14
Abs1:Abs2 ([2]; BTB in water 2.4 ppm (product conc. 4 %)): 4.59
Abs1:Abs2 ([2]; BTB in water 3.0 ppm (product conc. 5 %)): 4.37
Abs1:Abs2 ([2]; BTB in water 3.6 ppm (product conc. 6 %)): 4.52
Abs1:Abs2 ([2]; BTB in water 4.8 ppm (product conc. 8 %)): 4.35
Abs1:Abs2 ([2]; BTB in water 6.0 ppm (product conc. 10 %)): 4.47
Abs1:Abs2 ([2]; BTB in water 7.2 ppm (product conc. 12 %)): 4.31
Abs1:Abs2 ([2]; BTB in water 9.6 ppm (product conc. 16 %)): 4.29
Abs1:Abs2 ([2]; BTB in water 10.8 ppm (product conc. 18 %)): 4.23
Abs1:Abs2 ([2]; BTB in water 12.0 ppm (product conc. 20 %)): 4.16
change in the ratio Abs1:Abs2 upon dilution ([2]; dilution with deionized water): no significant change
pKa ([3]; model dishwashing detergent diluted with deionized water, detergent conc 1 %, model dishwashing detergent (approx. 30% surfactant)): 8.2
pKa ([3]; model dishwashing detergent diluted with deionized water, detergent conc 5 %, model dishwashing detergent (approx. 30% surfactant)): 9
pKa ([3]; model dishwashing detergent diluted with deionized water, detergent conc 10 %, model dishwashing detergent (approx. 30% surfactant)): 9.4
pKa ([3]; water without detergent, detergent conc 0 % (water, absence of detergent)): 7.3
SMILES: Cc1c(C2(c3cc(C(C)C)c(O)c(Br)c3C)OS(=O)(=O)c3ccccc32)cc(C(C)C)c(O)c1Br [BTB, bromothymol blue]
reported pKa [1]: 7.1
pKa, literature value [1]: 7.1

SMILES: Cc1c(C2(c3cc(Br)c(O)c(Br)c3C)OS(=O)(=O)c3ccccc32)cc(Br)c(O)c1Br [bromocresol green]
reported pKa [1]: 4.7

SMILES: Cc1cc(C2(c3cc(C)c(O)c(Br)c3)OS(=O)(=O)c3ccccc32)cc(Br)c1O [bromocresol purple]
reported pKa [1]: 6.3

SMILES: O=S1(=O)OC(c2cc(Br)c(O)c(Br)c2)(c2cc(Br)c(O)c(Br)c2)c2ccccc21 [bromophenol blue]
reported pKa [1]: 4.0

SMILES: Cc1cc(C2(c3cc(C)c(O)c(Br)c3C)OS(=O)(=O)c3ccccc32)c(C)c(Br)c1O [bromoxylenol blue]
reported pKa [1]: 7.0
